Patent publication US20260375233A1, “COMPOSITION FOR IMPROVING SKIN WRINKLES” (LG H&H CO., LTD., priority 2022, published 2026)

Experiments:
Format in all cases: cell-based
SPATA5 = SPATA5 gene expression (qPCR) in human skin fibroblasts; conditions: 24 hours, Untreated = 1.00
Procedure: (§1) Human skin fibroblasts (NHDF-Neo-Human Dermal Fibroblasts, Neonatal, Lonza, CC-2509) were purchased from Lonza and then used. The purchased cells were cultured in an incubator (37 °C, 5% CO2) using media prepared by mixing Dulbecco Modified Eagle Medium (DMEM, Thermo Fisher Scientific) with 10% fetal bovine serum (FBS) and 1% antibiotics (penicillin streptomycin).
(§2) To analyze the efficacy of promoting collagen mRNA synthesis, human skin fibroblasts were dispensed on a 6-well plate at 1.5×10^5 cells/well and cultured in an incubator (37 °C, 5% CO2) for 24 hours. The substances were added to serum free media at an appropriate concentration/combination, and then the cells were again cultured for 24 hours under the same conditions. Thereafter, mRNA was obtained using an RNA-spin total RNA extraction kit (iNtRON Biotechnology, 17211), and cDNA was synthesized using a cDNA synthesis kit (PhileKorea Technology, ET21100). The expression level of each gene was analyzed by performing qPCR using the synthesized cDNA and taqman probes (assay ID: COL1A1-Hs00164004_m1, COL3A1-Hs00943809_m1, PPARGC1B-Hs00993805_m1, SPATA5-Hs01047535_m1, EN1-Hs00154977_m1).
Although the role of SPATA5 in the skin has not been studied, SPATA5 may play a role in mitochondrial function and ATP production. […]

Type I collagen (COL1A1) = assay: collagen mRNA synthesis promotion (qPCR), COL1A1 in human skin fibroblasts; conditions: 24 hours, mRNA by qPCR
Procedure: as §1
as §2, with “COL4A1-Hs00266237_m1, BNC2-Hs00417700_m1, EDAR-Hs00223468_m1).” for “PPARGC1B-Hs00993805_m1, SPATA5-Hs01047535_m1, EN1-Hs00154977_m1).”
as §2, with “COL4A1-Hs00266237_m1, sgpp2-Hs00544786_m1), ADIPOQ F primer (5′-[…]-3′), and ADIPOQ R primer (5′-[…]-3′).” for “COL3A1-Hs00943809_m1, PPARGC1B-Hs00993805_m1, SPATA5-Hs01047535_m1, EN1-Hs00154977_m1).”
as §2

[1] = system: Type IV collagen (COL4A1); assay: collagen mRNA synthesis promotion (qPCR), COL4A1 in human skin fibroblasts; conditions: 24 hours, mRNA by qPCR
Procedure: as §1
as §2, with “COL4A1-Hs00266237_m1, BNC2-Hs00417700_m1, EDAR-Hs00223468_m1).” for “PPARGC1B-Hs00993805_m1, SPATA5-Hs01047535_m1, EN1-Hs00154977_m1).”
as §2, with “COL4A1-Hs00266237_m1, sgpp2-Hs00544786_m1), ADIPOQ F primer (5′-[…]-3′), and ADIPOQ R primer (5′-[…]-3′).” for “COL3A1-Hs00943809_m1, PPARGC1B-Hs00993805_m1, SPATA5-Hs01047535_m1, EN1-Hs00154977_m1).”

ADIPOQ = ADIPOQ gene expression (qPCR) in human skin fibroblasts; conditions: 24 hours, FIG. 16
Procedure: as §1
as §2, with “COL4A1-Hs00266237_m1, sgpp2-Hs00544786_m1), ADIPOQ F primer (5′-[…]-3′), and ADIPOQ R primer (5′-[…]-3′).” for “COL3A1-Hs00943809_m1, PPARGC1B-Hs00993805_m1, SPATA5-Hs01047535_m1, EN1-Hs00154977_m1).”
As another example, ADIPOQ, a gene expressing adiponectin, is a substance primarily secreted in adipose tissue, and ADIPOQ in the skin is mainly known for anti-inflammatory effects thereof. […]

EDAR = EDAR gene expression (qPCR) in human skin fibroblasts; conditions: 24 hours, FIG. 7
Procedure: as §1
as §2, with “COL4A1-Hs00266237_m1, BNC2-Hs00417700_m1, EDAR-Hs00223468_m1). […]” for “PPARGC1B-Hs00993805_m1, SPATA5-Hs01047535_m1, EN1-Hs00154977_m1).”

[2] = system: Type III collagen (COL3A1); assay: collagen mRNA synthesis promotion (qPCR), COL3A1 in human skin fibroblasts; conditions: 24 hours, mRNA by qPCR
Procedure: as §1
as §2, with “Thereafter, mRNA was obtained using an RNA-spin total RNA extraction kit (iNtRON Biotechnology, 17211), and cDNA was synthesized using a cDNA synthesis kit (PhileKorea Technology, ET21100).” left out, “COL4A1-Hs00266237_m1, BNC2-Hs00417700_m1, EDAR-Hs00223468_m1).” for “PPARGC1B-Hs00993805_m1, SPATA5-Hs01047535_m1, EN1-Hs00154977_m1).”
To analyze the efficacy of promoting collagen mRNA synthesis, human skin fibroblasts were dispensed on a 6-well plate at 1.5×10^5 cells/well and cultured in an incubator (37 °C, 5% CO2) for 24 hours. […] The expression level of each gene was analyzed by performing qPCR using the synthesized cDNA and taqman probes (assay ID: COL1A1-Hs00164004_m1, COL3A1-Hs00943809_m1, PPARGC1B-Hs00993805_m1, SPATA5-Hs01047535_m1, EN1-Hs00154977_m1).

PPARGC1B = PPARGC1B gene expression (qPCR) in human skin fibroblasts; conditions: 24 hours, Non-treated = 1.00
Procedure: as §1, §2
For example, PPARGC1B, one of co-activators of peroxisome proliferator activated receptor-γ (PPARγ), has been known to be associated with melanogenesis in the skin. PPARGC1B has been reported to be involved in the wrinkle formation by mitochondrial dysfunction and the wrinkle reduction by mitochondrial function recovery (Cell Death & Disease volume 9, Article number: 735 (2018)). Therefore, the increased expression level of PPARGC1B serves to restore the function of mitochondria, which are cell energy producing organelles, thereby preventing and recovering from nasolabial wrinkles, which are deeply indented wrinkles accumulated over a relatively long time. That is, it can be seen that the increase in expression level of PPARGC1B by the treatment with the substances of the present invention is effective in wrinkle improvement.

SGPP2 = SGPP2 gene expression (qPCR) in human skin fibroblasts; conditions: 24 hours, FIG. 15
Procedure: as §1
as §2, with “COL4A1-Hs00266237_m1, sgpp2-Hs00544786_m1), ADIPOQ F primer (5′-[…]-3′), and ADIPOQ R primer (5′-[…]-3′).” for “COL3A1-Hs00943809_m1, PPARGC1B-Hs00993805_m1, SPATA5-Hs01047535_m1, EN1-Hs00154977_m1).”
For example, SGPP2 is a gene expressing an enzyme capable of dominantly acting in an inflammation status, and the overactivity of SGPP2 may be more vulnerable to inflammatory signals. […]

BNC2 = BNC2 gene expression (qPCR) in human skin fibroblasts; conditions: 24 hours, FIG. 6
Procedure: as §1
as §2, with “COL4A1-Hs00266237_m1, BNC2-Hs00417700_m1, EDAR-Hs00223468_m1).” for “PPARGC1B-Hs00993805_m1, SPATA5-Hs01047535_m1, EN1-Hs00154977_m1).”
The degrees of fine wrinkle improvement by the substances of the present invention were investigated on the basis of the polymorphism markers showing correlations with the degree of skin fine wrinkles, obtained through Example 1. […]

Molecule | expression of Type I collagen (COL1A1) (Type I collagen (COL1A1)) | expression of Type IV collagen (COL4A1) [1] | other results
NC[C@H]1CC[C@H](C(=O)O)CC1 [tranexamic acid, reference compound] | promoted the expression | – | Expression level of gene (SPATA5) (SPATA5): 1.21
Cc1cc(O)c2c(c1)C(=O)c1cc(O)cc(O)c1C2=O [emodin] | promoted the expression | promoted the expression | expression of ADIPOQ (ADIPOQ): increased the expression
Cc1ncc(CO)c(CO)c1O.Cl [pyridoxine HCl] | promoted the expression | – | Expression level of gene (SPATA5) (SPATA5): 1.36
C=C(C)[C@@H]1CC[C@]2(C)CC[C@@H]3[C@H](CC[C@H]4[C@@]3(C)CC[C@H]3C(C)(C)[C@@H](O)CC[C@]43C)[C@@H]12 [lupeol] | – | – | expression of EDAR (EDAR): increased the expression; expression of Type III collagen (COL3A1) [2]: promoted the expression
COc1ccc(-c2coc3cc(O)ccc3c2=O)cc1 [formononetin] | promoted the expression | promoted the expression | expression of ADIPOQ (ADIPOQ): increased the expression
CC12CCC(CC1=O)C2(C)C (centres unmarked) [camphor] | promoted the expression | – | Gene expression level (PPARGC1B) (PPARGC1B): 2.63
NC(=O)c1cccnc1 [niacinamide] | promoted the expression | – | Gene expression level (PPARGC1B) (PPARGC1B): 1.52
fucoidan | – | promoted the expression | expression of SGPP2 (SGPP2): inhibited the expression
O=C(CCc1ccc(O)cc1)c1c(O)cc(O)cc1O [phloretin] | promoted the expression | promoted the expression | expression of BNC2 (BNC2): inhibited the expression; expression of Type III collagen (COL3A1) [2]: promoted the expression
COc1cc(/C=C/C(=O)NCCc2c[nH]c3ccc(O)cc23)ccc1O [N-feruloylserotonin] | – | promoted the expression | expression of SGPP2 (SGPP2): inhibited the expression
O=C[C@@H](O)[C@@H](O)[C@H](O)[C@H](O)COP(=O)([O-])[O-].[Na+].[Na+] [sodium mannose phosphate, D-mannose-6-phosphate sodium salt] | promoted the expression | – | Gene expression level (PPARGC1B) (PPARGC1B): 1.53
